In PubChem BioAssay AID2060889 (Molecular Pharmacology Branch, DTP, NCI, 2025):

Tested on: LG0567-F671-PDC complex spheroids viability
Experiment: Anticancer human tumor LG0567-F671-PDC patient-derived lung adenocarcinoma cell line growth inhibition [RAS]
Conditions: for IC50: curve of first compound; for viability, T/C: stronger effect = lower value
How it was run: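 Agents were tested in combination matrices in half-log decrements from a top concentration at or near clinical Cmax (10 microM if undetermined). Targets were multi-cell spheroids of tumour lines plus HUVEC and MSC stromal cells.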

[1] = second compound 0.0316 µM, first compound 0.0316 µM
[2] = second compound 0.0316 µM, first compound 0.1 µM
[3] = second compound 0.0316 µM, first compound 0.316 µM
[4] = second compound 0.0316 µM, first compound 1 µM
[5] = second compound 0.0316 µM, first compound 3.16 µM
[6] = second compound 0.0316 µM, first compound 10 µM
[7] = second compound 0.1 µM, first compound 0.0316 µM
[8] = second compound 0.1 µM, first compound 0.1 µM
[9] = second compound 0.1 µM, first compound 0.316 µM
[10] = second compound 0.1 µM, first compound 1 µM
[11] = second compound 0.1 µM, first compound 3.16 µM
[12] = second compound 0.1 µM, first compound 10 µM
[13] = second compound 0.316 µM, first compound 0.0316 µM
[14] = second compound 0.316 µM, first compound 0.1 µM
[15] = second compound 0.316 µM, first compound 0.316 µM
[16] = second compound 0.316 µM, first compound 1 µM
[17] = second compound 0.316 µM, first compound 3.16 µM
[18] = second compound 0.316 µM, first compound 10 µM
[19] = second compound 1 µM, first compound 0.0316 µM
[20] = second compound 1 µM, first compound 0.1 µM
[21] = second compound 1 µM, first compound 0.316 µM
[22] = second compound 1 µM, first compound 1 µM
[23] = second compound 1 µM, first compound 3.16 µM
[24] = second compound 1 µM, first compound 10 µM
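Also: spheroids exposed to compound for seven days before readout.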
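For IC50 in this document: luminescence signal used as a proxy for viable cells.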

Structure (SMILES): NC1c2ccccc2OC12CCN(c1cnc3c(N4CCCc5ncccc54)n[nH]c3n1)CC2 (centres undefined) + C#Cc1c(F)ccc2cc(O)cc(-c3ncc4c(N5CC6CCC(C5)N6)nc(OCC56CCCN5CC(F)C6)nc4c3F)c12
- IC50 (second compound 0.0316 µM): < 31.6 nM
- IC50 (second compound 0.1 µM): < 31.6 nM
- IC50 (second compound 0.316 µM): < 31.6 nM
- IC50 (second compound 1 µM): < 31.6 nM
- IC50 (second compound 3.16 µM): < 31.6 nM
- IC50 (second compound 10 µM): < 31.6 nM
- viability, T/C [1]: 26.7%
- viability, T/C [2]: 19.3%
- viability, T/C [3]: 14.6%
- viability, T/C [4]: 13.3%
- viability, T/C [5]: 10.4%
- viability, T/C [6]: 10.1%
- viability, T/C [7]: 21%
- viability, T/C [8]: 14.3%
- viability, T/C [9]: 10.1%
- viability, T/C [10]: 8.88%
- viability, T/C [11]: 7.88%
- viability, T/C [12]: 6.09%
- viability, T/C [13]: 13.9%
- viability, T/C [14]: 9.75%
- viability, T/C [15]: 8.65%
- viability, T/C [16]: 4.96%
- viability, T/C [17]: 3.75%
- viability, T/C [18]: 2.92%
- viability, T/C [19]: 9.24%
- viability, T/C [20]: 6.71%
- viability, T/C [21]: 4%
- viability, T/C [22]: 3.17%
- viability, T/C [23]: 2.53%
- viability, T/C [24]: 2.43%
- viability, T/C (second compound 3.16 µM, first compound 0.0316 µM): 6.2%
- viability, T/C (second compound 3.16 µM, first compound 0.1 µM): 3.13%
- viability, T/C (second compound 3.16 µM, first compound 0.316 µM): 2.43%
- viability, T/C (second compound 3.16 µM, first compound 1 µM): 1.79%
- viability, T/C (second compound 3.16 µM, first compound 3.16 µM): 2.13%
- viability, T/C (second compound 3.16 µM, first compound 10 µM): 1.85%
- viability, T/C (second compound 10 µM, first compound 0.0316 µM): 3.6%
- viability, T/C (second compound 10 µM, first compound 0.1 µM): 2.14%
- viability, T/C (second compound 10 µM, first compound 0.316 µM): 1.74%
- viability, T/C (second compound 10 µM, first compound 1 µM): 1.65%
- viability, T/C (second compound 10 µM, first compound 3.16 µM): 1.73%
- viability, T/C (second compound 10 µM, first compound 10 µM): 1.28%

Structure (SMILES): CCC(CC)c1cc(NC2CCC(N)C2)n2nccc2n1 (centres undefined) + C=CC(=O)N1CCN(c2nc(OCC3CCCN3C)nc3c(F)c(-c4nc(N)cc(C)c4C(F)(F)F)c(Cl)cc23)C(C)C1
- IC50 (second compound 0.00316 µM): < 31.6 nM
- IC50 (second compound 0.01 µM): < 31.6 nM
- IC50 (second compound 0.0316 µM): < 31.6 nM
- IC50 (second compound 0.1 µM): < 31.6 nM
- IC50 (second compound 0.316 µM): < 31.6 nM
- IC50 (second compound 1 µM): < 31.6 nM
- viability, T/C (second compound 0.00316 µM, first compound 0.0316 µM): 18.7%
- viability, T/C (second compound 0.00316 µM, first compound 0.1 µM): 16.5%
- viability, T/C (second compound 0.00316 µM, first compound 0.316 µM): 17.8%
- viability, T/C (second compound 0.00316 µM, first compound 1 µM): 15.8%
- viability, T/C (second compound 0.00316 µM, first compound 3.16 µM): 3.58%
- viability, T/C (second compound 0.00316 µM, first compound 10 µM): 0.33%
- viability, T/C (second compound 0.01 µM, first compound 0.0316 µM): 12.8%
- viability, T/C (second compound 0.01 µM, first compound 0.1 µM): 13.4%
- viability, T/C (second compound 0.01 µM, first compound 0.316 µM): 15.6%
- viability, T/C (second compound 0.01 µM, first compound 1 µM): 12.7%
- viability, T/C (second compound 0.01 µM, first compound 3.16 µM): 3.96%
- viability, T/C (second compound 0.01 µM, first compound 10 µM): 0.45%
- viability, T/C [1]: 11.5%
- viability, T/C [2]: 11.6%
- viability, T/C [3]: 12.2%
- viability, T/C [4]: 11.2%
- viability, T/C [5]: 3.67%
- viability, T/C [6]: 0.43%
- viability, T/C [7]: 11.6%
- viability, T/C [8]: 16.4%
- viability, T/C [9]: 12.2%
- viability, T/C [10]: 10.4%
- viability, T/C [11]: 3.67%
- viability, T/C [12]: 0.68%
- viability, T/C [13]: 11.4%
- viability, T/C [14]: 11.2%
- viability, T/C [15]: 12.8%
- viability, T/C [16]: 11.4%
- viability, T/C [17]: 4.66%
- viability, T/C [18]: 0.75%
- viability, T/C [19]: 14.2%
- viability, T/C [20]: 14.3%
- viability, T/C [21]: 14.3%
- viability, T/C [22]: 12.2%
- viability, T/C [23]: 4.35%
- viability, T/C [24]: 0.62%
